Measurements: PubChem BioAssay AID248 (DTP/NCI, 2004)
Values joined by “and” are separate entries in the source; they are usually repeats but may differ in a detail not shown here. Identical values can stand only once. Inconclusive results and toxic doses are left out. Rule as the data show it: active = T/C of 150% or more; inactive = T/C below 125%.

System: L1210 leukemia ip in BDF1 mice, survival T/C
Test: NCI In Vivo Anticancer Drug Screen. Data for tumor model L1210 Leukemia (intraperitoneal) in B6D2F1 (BDF1) mice
Conditions: endpoint: mean survival time, higher = longer survival
Experimental: The antitumor activity of compounds was measured in mice bearing transplantable tumors. Survival or tumor size were measured and the results are expressed as the measurement made in the treated group (T) divided by the measurement made in the vehicle treated control group (C). The tumor model used in this assay is L1210 Leukemia (intraperitoneal) in B6D2F1 (BDF1) mice

[1] = dose: 100.0 mg/kg/injection, schedule: Q01DX001 (ip), vehicle: saline
[2] = dose: 100.0 mg/kg/injection, schedule: Q01DX009 (ip), vehicle: saline with Tween-80
[3] = dose: 100.0 mg/kg/injection, schedule: Q04DX003 (ip), vehicle: saline with Tween-80
[4] = dose: 200.0 mg/kg/injection, schedule: Q01DX009 (ip), vehicle: saline with Tween-80
[5] = dose: 200.0 mg/kg/injection, schedule: Q04DX003 (ip), vehicle: saline with Tween-80
[6] = dose: 400.0 mg/kg/injection, schedule: Q01DX009 (ip), vehicle: saline with Tween-80
[7] = dose: 400.0 mg/kg/injection, schedule: Q04DX003 (ip), vehicle: saline with Tween-80
[8] = dose: 50.0 mg/kg/injection, schedule: Q04DX003 (ip), vehicle: saline
[9] = dose: 100.0 mg/kg/injection, schedule: Q04DX003 (ip), vehicle: saline
[10] = dose: 200.0 mg/kg/injection, schedule: Q04DX003 (ip), vehicle: saline
[11] = dose: 100.0 mg/kg/injection, schedule: Q04DX003 (ip), vehicle: Klucel (hydroxypropylcellulose) (HPC)
[12] = dose: 100.0 mg/kg/injection, schedule: Q01DX009 (ip), vehicle: Klucel (hydroxypropylcellulose) (HPC)
[13] = dose: 200.0 mg/kg/injection, schedule: Q01DX009 (ip), vehicle: Klucel (hydroxypropylcellulose) (HPC)
[14] = dose: 200.0 mg/kg/injection, schedule: Q04DX003 (ip), vehicle: Klucel (hydroxypropylcellulose) (HPC)
[15] = dose: 400.0 mg/kg/injection, schedule: Q01DX009 (ip), vehicle: Klucel (hydroxypropylcellulose) (HPC)
[16] = dose: 400.0 mg/kg/injection, schedule: Q04DX003 (ip), vehicle: Klucel (hydroxypropylcellulose) (HPC)

Measured: T/C

O=C(CC(C(=O)c1ccccc1)N1CCN(Cc2ccccc2)CC1)c1ccccc1 (configuration not stated)
inactive: dose: 50.0 mg/kg/injection, schedule: Q01DX001 (ip), vehicle: carboxymethylcellulose (CMC) 92 % of control | dose: 100.0 mg/kg/injection, schedule: Q01DX001 (ip), vehicle: carboxymethylcellulose (CMC) 94 % of control | dose: 200.0 mg/kg/injection, schedule: Q01DX001 (ip), vehicle: carboxymethylcellulose (CMC) 92 % of control | dose: 400.0 mg/kg/injection, schedule: Q01DX001 (ip), vehicle: carboxymethylcellulose (CMC) 97 % of control

CS(=O)CC(=O)c1ccc(C(=O)O)cc1 (configuration not stated)
inactive: dose: 100.0 mg/kg/injection, schedule: Q04DX003 (ip), vehicle: other 107 % of control | dose: 200.0 mg/kg/injection, schedule: Q04DX003 (ip), vehicle: other 98 % of control | dose: 400.0 mg/kg/injection, schedule: Q04DX003 (ip), vehicle: other 101 % of control

O=C(O)C(Br)CBr (configuration not stated)
inactive: [1] 90 % of control

Cc1ccc(C(=O)c2ccccc2C(=O)O)cc1N
inactive: [2] 105 % of control | [3] 99 % of control | [4] 97 % of control | [5] 99 % of control | [6] 106 % of control | [7] 97 % of control

O=C1NC(=S)N/C1=C/c1ccc2c(c1)CCC2
inactive: [2] 112 % of control | [3] 95 % of control | [4] 94 % of control | [5] 101 % of control | [6] 102 % of control | [7] 87 % of control

Clc1nc2cc(Cl)c(Cl)cc2[nH]1
inactive: dose: 100.0 mg/kg/injection, schedule: Q04DX003 (ip), vehicle: acetone 95 % of control | dose: 200.0 mg/kg/injection, schedule: Q04DX003 (ip), vehicle: acetone 95 % of control

Oc1c(Cl)cc(Cl)cc1C=Nc1ccc(Br)cn1
inactive: dose: 100.0 mg/kg/injection, schedule: Q01DX001 (ip), vehicle: other 95 % of control | dose: 200.0 mg/kg/injection, schedule: Q01DX001 (ip), vehicle: other 101 % of control | dose: 400.0 mg/kg/injection, schedule: Q01DX001 (ip), vehicle: other 95 % of control

O=CC(=O)c1ccc(O)cc1
inactive: dose: 50.0 mg/kg/injection, schedule: Q01DX009 (ip), vehicle: saline sonified 114 % of control | [8] 111 % of control | dose: 66.0 mg/kg/injection, schedule: Q04DX003 (ip), vehicle: saline 97 % of control | dose: 100.0 mg/kg/injection, schedule: Q01DX009 (ip), vehicle: saline sonified 119 % of control | [9] 103 % of control and 111 % of control | dose: 150.0 mg/kg/injection, schedule: Q04DX003 (ip), vehicle: saline 103 % of control | [10] 117 % of control

N/N=C(\N)NN
inactive: dose: 15.0 mg/kg/injection, schedule: Q01DX Z (ip), vehicle: methylcellulose (MC) 102 % of control | dose: 30.0 mg/kg/injection, schedule: Q01DX Z (ip), vehicle: methylcellulose (MC) 100 % of control | dose: 60.0 mg/kg/injection, schedule: Q01DX Z (ip), vehicle: methylcellulose (MC) 102 % of control | dose: 120.0 mg/kg/injection, schedule: Q01DX Z (ip), vehicle: methylcellulose (MC) 105 % of control | dose: 240.0 mg/kg/injection, schedule: Q01DX Z (ip), vehicle: methylcellulose (MC) 114 % of control | dose: 240.0 mg/kg/injection, schedule: Q01DX Z (oral), vehicle: methylcellulose (MC) 95 % of control | dose: 420.0 mg/kg/injection, schedule: Q01DX Z (oral), vehicle: methylcellulose (MC) 100 % of control | dose: 480.0 mg/kg/injection, schedule: Q01DX Z (ip), vehicle: methylcellulose (MC) 103 % of control | dose: 600.0 mg/kg/injection, schedule: Q01DX Z (oral), vehicle: methylcellulose (MC) 105 % of control | dose: 720.0 mg/kg/injection, schedule: Q01DX Z (ip), vehicle: methylcellulose (MC) 119 % of control

O=C(CCCC(=O)N/N=C/c1ccc([N+](=O)[O-])cc1)N/N=C\c1ccc([N+](=O)[O-])cc1
inactive: dose: 50.0 mg/kg/injection, schedule: Q01DX001 (ip), vehicle: saline 93 % of control | [1] 100 % of control | dose: 200.0 mg/kg/injection, schedule: Q01DX001 (ip), vehicle: saline 103 % of control | dose: 400.0 mg/kg/injection, schedule: Q01DX001 (ip), vehicle: saline 103 % of control

O=C(CCl)c1ccc(Oc2ccccc2)cc1
inactive: dose: 20.0 mg/kg/injection, schedule: Q01DX009 (ip), vehicle: Klucel (hydroxypropylcellulose) (HPC) 103 % of control | dose: 20.0 mg/kg/injection, schedule: Q04DX003 (ip), vehicle: Klucel (hydroxypropylcellulose) (HPC) 107 % of control | dose: 40.0 mg/kg/injection, schedule: Q01DX009 (ip), vehicle: Klucel (hydroxypropylcellulose) (HPC) 100 % of control | dose: 40.0 mg/kg/injection, schedule: Q04DX003 (ip), vehicle: Klucel (hydroxypropylcellulose) (HPC) 104 % of control | dose: 80.0 mg/kg/injection, schedule: Q04DX003 (ip), vehicle: Klucel (hydroxypropylcellulose) (HPC) 105 % of control | [11] 89 % of control

CC(=O)Nc1ncc(/C=C/c2ccc([N+](=O)[O-])cc2)c(NC(C)=O)n1
inactive: dose: 100.0 mg/kg/injection, schedule: Q01DX001 (ip), vehicle: Klucel (hydroxypropylcellulose) (HPC) 100 % of control | dose: 200.0 mg/kg/injection, schedule: Q01DX001 (ip), vehicle: Klucel (hydroxypropylcellulose) (HPC) 87 % of control | dose: 400.0 mg/kg/injection, schedule: Q01DX001 (ip), vehicle: Klucel (hydroxypropylcellulose) (HPC) 87 % of control

C=CCCC1(C(C)CC)C(=O)NC(=S)NC1=O (configuration not stated)
inactive: dose: 75.0 mg/kg/injection, schedule: Q01DX001 (ip), vehicle: saline 100 % of control | dose: 150.0 mg/kg/injection, schedule: Q01DX001 (ip), vehicle: saline 95 % of control | dose: 300.0 mg/kg/injection, schedule: Q01DX001 (ip), vehicle: saline 100 % of control

O=C(NC1CCC(CC2CCCCC2)CC1)C(Cl)Cl (configuration not stated)
inactive: [12] 91 % of control | [11] 93 % of control | [13] 93 % of control | [14] 88 % of control | [15] 91 % of control | [16] 109 % of control

C[n+]1ccccc1/C=C/c1csc2ccccc12
inactive: dose: 5.0 mg/kg/injection, schedule: Q01DX001 (ip), vehicle: carboxymethylcellulose (CMC) 100 % of control | dose: 10.0 mg/kg/injection, schedule: Q01DX001 (ip), vehicle: carboxymethylcellulose (CMC) 102 % of control | dose: 20.0 mg/kg/injection, schedule: Q01DX001 (ip), vehicle: carboxymethylcellulose (CMC) 100 % of control | dose: 40.0 mg/kg/injection, schedule: Q01DX001 (ip), vehicle: carboxymethylcellulose (CMC) 100 % of control | dose: 80.0 mg/kg/injection, schedule: Q01DX001 (ip), vehicle: carboxymethylcellulose (CMC) 107 % of control

Nc1ccc(NS(=O)(=O)c2ccccc2)nc1
inactive: [12] 102 % of control | [11] 106 % of control | [13] 96 % of control | [14] 100 % of control | [15] 93 % of control | [16] 105 % of control

CNC(=O)C(C)NC(C)=O (configuration not stated)
inactive: dose: 50.0 mg/kg/injection, schedule: Q04DX002 (ip), vehicle: saline 99 % of control | dose: 100.0 mg/kg/injection, schedule: Q04DX002 (ip), vehicle: saline 102 % of control | dose: 200.0 mg/kg/injection, schedule: Q04DX002 (ip), vehicle: saline 105 % of control

Cc1ccc(S(=O)(=O)OC2C(=O)C(C)(C)CCC2(C)C)cc1 (configuration not stated)
inactive: dose: 100.0 mg/kg/injection, schedule: Q04DX002 (ip), vehicle: Klucel (hydroxypropylcellulose) (HPC) 100 % of control | dose: 200.0 mg/kg/injection, schedule: Q04DX002 (ip), vehicle: Klucel (hydroxypropylcellulose) (HPC) 100 % of control | dose: 400.0 mg/kg/injection, schedule: Q04DX002 (ip), vehicle: Klucel (hydroxypropylcellulose) (HPC) 97 % of control

C(#CCN1CCOCC1)CCCN1CCOCC1
inactive: [9] 96 % of control | [10] 95 % of control | dose: 400.0 mg/kg/injection, schedule: Q04DX003 (ip), vehicle: saline 93 % of control

COC(=O)CSc1nn2nnnc2c2ccccc12
inactive: [8] 95 % of control | [9] 103 % of control | [10] 98 % of control
